# Measured values published in patent US8765735B2, “Isoxazolines as inhibitors of fatty acid amide hydrolase” (Infinity Pharmaceuticals, Inc., priority 2009, dated 2014).
# pKi: −log10 of the molar value.
# Molecular target: T1, human FAAH (Homo sapiens, UniProt O00519)
# T1 construct: host or cells: COS-7 cells, transient transfection; 13,000 g membrane fraction solubilised in 1% Triton X-100
# T1 sequence (O00519 1-579): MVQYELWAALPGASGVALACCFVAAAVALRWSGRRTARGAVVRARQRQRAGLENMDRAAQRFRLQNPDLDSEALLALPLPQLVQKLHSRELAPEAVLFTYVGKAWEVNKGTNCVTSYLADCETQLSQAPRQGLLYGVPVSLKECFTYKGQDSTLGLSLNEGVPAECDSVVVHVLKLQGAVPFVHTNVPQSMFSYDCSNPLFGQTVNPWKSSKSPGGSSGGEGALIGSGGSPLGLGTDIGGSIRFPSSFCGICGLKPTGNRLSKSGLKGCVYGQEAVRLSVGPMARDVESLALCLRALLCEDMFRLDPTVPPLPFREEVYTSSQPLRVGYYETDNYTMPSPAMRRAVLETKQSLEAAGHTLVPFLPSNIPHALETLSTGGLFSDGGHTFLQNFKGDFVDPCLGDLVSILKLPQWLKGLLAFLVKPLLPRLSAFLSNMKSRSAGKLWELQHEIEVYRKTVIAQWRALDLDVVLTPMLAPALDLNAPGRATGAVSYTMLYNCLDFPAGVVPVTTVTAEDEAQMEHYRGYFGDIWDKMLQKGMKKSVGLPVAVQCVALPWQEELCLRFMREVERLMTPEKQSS
# Test: Inhibition of human FAAH (fluorescence assay, AMC arachidonoyl amide substrate)
# Assay type: biochemical
# Settings: solubilized human FAAH from transfected COS-7 cells; 30 min preincubation; 20 μM AMC-arachidonoyl amide; 4 h at room temperature
# Protocol: Human FAAH Preparation: COS-7 cells were split the day before, 1:5 into 150 mm×25 mm cell culture dishes (Corning Inc., Cat. No. 430599). Transient transfection took place at 30-40% confluency according to FuGENE 6 Transfection Reagent (Roche, Cat. No. 11814 443 001).
# Transfection Procedure: The FuGENE transfection 6 reagent (45 uL) was added to 1410 μL of media (DMEM, serum free without pen/strep) in a 15 mL conical tube and incubated at room temp for 5 minutes, followed by the addition of FAAH plasmid DNA (15 μg) (OriGene Cat. No. TC119221, Genbank Accession No. NM_001441.1, 0.67 ug/uL) and a further incubation of 15 minutes at room temperature. The resulting solution was added into one dish of 30-40% confluent COS-7 cells in a drop-wise manner. The COS-7 cell dish was subsequently incubated for 48 hours. The cells are then harvested.
# Harvest procedure: Media was aspirated from the dishes and the cells rinsed with 10 mL PBS. The PBS was removed and 3 mL of PBS added to the dish. The dish was scraped to resuspend the cells, and the subsequent cell suspension collected into a 15 mL conical tube. The cells were pelleted by centrifugation at 1200 rpm for 5 minutes in a bench top centrifuge. PBS was removed and the cell pellet snap frozen in liquid nitrogen and stored at −80° C.
# COS-7 cells—FAAH purification: • (1) Fractionation: Frozen cell pellets from transient transfections were thawed on ice and resuspended in 12.5 mM Hepes pH 8.0, 100 mM NaCl, 1 mM EDTA (10 mL/0.2 g cell pellet). The pellets were dounce homogenized and then sonicated to produce cell extract. The cell extract was subsequently centrifuged at 1000 g to remove cellular debris. The pellet was discarded and the supernatant centrifuged at 13,000 g for 20 minutes. The pellet contained membrane bound FAAH. The supernatant was discarded and the pellet resolubilized. • (2) Re-solubilization: The fraction of interest, (13,000 g, membrane fraction) was re-suspended in 2.3 mL re-suspension buffer (20 mM Hepes pH 7.8, 10% v/v Glycerol, 1 mM EDTA, 1% Triton X-100) and the sample incubated on ice for 1 hour and then centrifuged to remove any particulate matter. The supernatant containing solubilized human FAAH was aliquoted and snap frozen in liquid nitrogen and stored at 80° C. until use. • (3) Characterization: Protein Concentration determined by Bradford assay. • SDS gel and Western blot to confirm presence of FAAH • FAAH activity assay • Km determination—96-well assay • Linear dependence—96-well assay • Standard compound Ki determination—384-well assay
# Human FAAH assay; Experimental Protocol: A 0.1 mg/mL Human FAAH solution was made up in FAAH reaction buffer, and 24 ul pipeted into a 384 well plate. To this was added 1 μL of a 3 fold serially diluted inhibitor from a DMSO stock solution. The FAAH solution and inhibitor were incubated for 30 minutes at room temperature. The FAAH reaction was initiated by the addition of 25 μL of 40 μM AMC Arachidonoyl Amide in FAAH reaction buffer, yielding a final reaction human FAAH preparation concentration of 0.05 mg/ml and AMC-Arachidonoyl substrate concentration of 20 μM, reaction volume 50 μL. The reaction was allowed to proceed for 4 hours at room temperature. The reaction was stopped by the addition of 25 μL 12 μM a-ketoheterocycle (Cayman Chemicals, catalogue #10435). The microtiter plate was read in the envision plate reader.
# The raw fluorescence was plotted on the y axis and the inhibitor concentration on the x axis to give a dose response inhibition curve. The data was fitted to a single site competitive inhibition equation, fixing the Km for the human enzyme to 12 μM and 9 μM respectively.
row,pKi,SMILES
1,≥ 7.00,CSc1ccc(OC2=NO[C@]3(CCc4cc(OC(F)(F)F)ccc43)C2)cn1 [III-67a]
2,≥ 7.00,CSc1ccc(OC2=NO[C@@]3(CCc4cc(OC(F)(F)F)ccc43)C2)cn1 [III-67b]
3,≥ 7.00,BrC1=NO[C@@]2(CCc3cc(Oc4ccccc4)ccc32)C1 [III-63b]
4,≥ 7.00,BrC1=NO[C@]2(CC[C@@H](c3ccccc3)CC2)C1 [III-3b]
5,≥ 7.00,FC(F)(F)Oc1ccc2c(c1)CC[C@@]21CC(Br)=NO1 [III-66a]
6,≥ 7.00,Clc1ccc(CN2CCC3(CC2)CC(Oc2cccnc2)=NO3)cc1 [III-51]
7,≤ 6.00,CC(C)(C)OC(=O)N1CCC[C@@]2(CC(Br)=NO2)C1 [III-10a]
8,≥ 7.00,BrC1=NO[C@]2(CC[C@@H](COc3ccccc3)CC2)C1 [III-8b]
9,≥ 7.00,O=C(OCc1ccc(Cl)cc1)N1CCC2(CC1)CC(Br)=NO2 [III-40]
10,≥ 7.00,BrC1=NO[C@@]2(CCCc3cc(Oc4ccccc4)ccc32)C1 [III-62b]
11,≤ 6.00,CC(=O)N1CCC2(CC1)CC(Br)=NO2 [III-15]
12,6.00 to 7.00,BrC1=NOC2(CCN(c3ccccc3)CC2)C1 [III-30]
13,≥ 7.00,O=C(OCc1ccccc1)N1CCC2(CC1)CC(Oc1cccnc1)=NO2 [III-46]
14,6.00 to 7.00,O=C(OCC(Cl)(Cl)Cl)N1CCC2(CC1)CC(Br)=NO2 [III-38]
15,≥ 7.00,ClC1=NOC2(CCN(Cc3ccc(Cl)cc3)CC2)C1 [III-48]
16,≥ 7.00,O=C(c1ccccc1)N1CCC2(CC1)CC(Br)=NO2 [III-16]
17,6.00 to 7.00,CC(C)(C)[C@H]1CC[C@]2(CC1)CC(Br)=NO2 [III-2a]
18,6.00 to 7.00,CC(C)(C)[C@H]1CC[C@@]2(CC1)CC(Br)=NO2 [III-2b]
19,≥ 7.00,C#Cc1ccc(CN2CCC3(CC2)CC(Oc2cccnc2)=NO3)cc1 [III-50]

row,pKi,SMILES
1,≥ 7.00,Cn1nccc1-c1ccc(OC2=NO[C@@]3(CCc4cc(OC(F)(F)F)ccc43)C2)cn1 [III-71b]
2,≤ 6.00,BrC1=NOC2(CCC3(CC2)OCCO3)C1 [III-4]
3,≥ 7.00,CC(C)COC(=O)N1CCC2(CC1)CC(Br)=NO2 [III-36]
4,≤ 6.00,CC(C)(C)OC(=O)N1CCC[C@]2(CC(Br)=NO2)C1 [III-10b]
5,≥ 7.00,Cn1cc(-c2ccc(OC3=NO[C@]4(CCc5cc(OC(F)(F)F)ccc54)C3)cn2)cn1 [III-70a]
6,≥ 7.00,CS(=O)(=O)c1ccc(OC2=NO[C@]3(CCc4cc(OC(F)(F)F)ccc43)C2)cn1 [III-68a]
7,6.00 to 7.00,O=S(=O)(c1ccccc1)N1CCC2(CC1)CC(Br)=NO2 [III-17]
8,≤ 6.00,O=C(Nc1ccccc1)N1CCC2(CC1)CC(Oc1cncnc1)=NO2 [III-56]
9,≥ 7.00,COc1ccc(CN2CCC3(CC2)CC(Br)=NO3)cc1 [III-21]
10,≥ 7.00,Cn1nccc1-c1ccc(OC2=NO[C@]3(CCc4cc(OC(F)(F)F)ccc43)C2)cn1 [III-71a]
11,6.00 to 7.00,COC(=O)N1CCC2(CC1)CC(Br)=NO2 [III-35]
12,≥ 7.00,BrC1=NO[C@]2(CCCc3cc(Oc4ccccc4)ccc32)C1 [III-62a]
13,≥ 7.00,CC(C)(C)OC(=O)N1CCC[C@]2(CC1)CC(Br)=NO2 [III-12b]
14,≥ 7.00,CS(=O)(=O)c1ccc(OC2=NO[C@@]3(CCc4cc(OC(F)(F)F)ccc43)C2)cn1 [III-68b]
15,≥ 7.00,CC(C)(C)OC(=O)N1CCC[C@@]2(CC1)CC(Br)=NO2 [III-12a]
16,≥ 7.00,O=C(OCc1ccccc1)N1CC2ON=C(Br)C2C1 (stereo not shown) [III-44]
17,≥ 7.00,FC(F)(F)Oc1ccc2c(c1)CC[C@@]21CC(Oc2cncc(-c3nnco3)c2)=NO1 [III-73a]
18,6.00 to 7.00,CC(C)(C)OC(=O)N1CC[C@]2(CC(Br)=NO2)C1 [III-11b]
19,≥ 7.00,C#Cc1ccc(CN2CCC3(CC2)CC(Br)=NO3)cc1 [III-49]

row,pKi,SMILES
1,≤ 6.00,O=C(CCCC(F)(F)F)N1CCC2(CC1)CC(Oc1cncnc1)=NO2 [III-57]
2,≥ 7.00,O=C(c1ccc(Cl)cc1)N1CCC2(CC1)CC(Oc1cncnc1)=NO2 [III-55]
3,≥ 7.00,O=C(OCc1ccccc1)N1CCC2(CC1)CC(Br)=NO2 [III-18]
4,6.00 to 7.00,O=C(CCc1ccccc1)N1CCC2(CC1)CC(Oc1cncnc1)=NO2 [III-54]
5,≥ 7.00,COc1ccc(COC(=O)N2CCC3(CC2)CC(Br)=NO3)cc1 [III-39]
6,6.00 to 7.00,CC(C)(C)OC(=O)N1C[C@@H]2ON=C(Br)[C@@H]2C1 [III-43b]
7,≥ 7.00,CC(C)(C)OC(=O)N1CCC2(CC1)CC(Cl)=NO2 [III-47]
8,≥ 7.00,O=C(Oc1ccccc1)N1CCC2(CC1)CC(Br)=NO2 [III-37]
9,≥ 7.00,Clc1ccc(CN2CCC3(CC2)CC(Br)=NO3)cc1Cl [III-25]
10,≤ 6.00,C[N+]1(C2=NOC3(CCN(C(=O)OCc4ccccc4)CC3)C2)CCCC1 [III-60]
11,≤ 6.00,O=C(OCc1ccccc1)N1CCC2(CC1)CC(N1CCCC1)=NO2 [III-59]
12,≥ 7.00,FC(F)(F)Oc1ccc2c(c1)CC[C@]21CC(Oc2cncc(-c3nnco3)c2)=NO1 [III-73b]
13,6.00 to 7.00,BrC1=NOC2CC(OCc3ccccc3)CC12 (stereo not shown) [III-42]
14,≥ 7.00,O=C(O)c1ccc(OC2=NO[C@@]3(CCc4cc(OC(F)(F)F)ccc43)C2)cn1 [III-74b]
15,6.00 to 7.00,CC(C)(C)OC(=O)N1C[C@@H]2C(Br)=NO[C@@H]2C1 [III-43a]
16,≥ 7.00,O=C(CCc1ccccc1)N1CCC2(CC1)CC(Br)=NO2 [III-34]
17,≥ 7.00,BrC1=NO[C@]2(CCc3cc(Oc4ccccc4)ccc32)C1 [III-63a]
18,6.00 to 7.00,CS(=O)(=O)c1ccc(OC2=NOC3(CCN(C(=O)c4ccccc4)CC3)C2)cn1 [III-58]

row,SMILES,pKi
1,BrC1=NOC2(CCN(CC3CCCCC3)CC2)C1 [III-32],≥ 7.00
2,BrC1=NOC2(CCCCC2)C1 [III-1],≥ 7.00
3,CC(C)(C)CN1CCC2(CC1)CC(Br)=NO2 [III-33],6.00 to 7.00
4,BrC1=NOC2(CCN(Cc3ccccc3)CC2)C1 [III-19],≥ 7.00
5,Clc1ccc(CN2CCC3(CC2)CC(Br)=NO3)cc1 [III-20],≥ 7.00
6,BrC1=NOC2(CCN(CCc3ccccc3)CC2)C1 [III-29],≥ 7.00
7,BrC1=NOC2(CCNCC2)C1 [III-14],≤ 6.00
8,Clc1cccc(CN2CCC3(CC2)CC(Br)=NO3)c1 [III-27],≥ 7.00
9,CC(C)(C)OC(=O)N1CCC2(CC1)CC(Br)=NO2 [III-9],≥ 7.00
10,CC(C)(C)OC(=O)N1C2CCC1CC1(CC(Br)=NO1)C2 (stereo not shown) [III-13a],≤ 6.00
11,Clc1ccc(CN2CC3ON=C(Br)C3C2)cc1 (stereo not shown) [III-45],≤ 6.00
12,BrC1=NOC2(CCN(Cc3cccnc3)CC2)C1 [III-23],6.00 to 7.00
13,BrC1=NOC2(CCN(Cc3ccccn3)CC2)C1 [III-22],6.00 to 7.00
14,Cc1ccc(CN2CCC3(CC2)CC(Br)=NO3)cc1 [III-24],≥ 7.00
